According to patent US20230053540A1, “TREATMENT OF LIVER INJURY” (Massachusetts Institute of Technology, priority 2019, published 2023):

System: hepatocytes
Test: Seq-Well scRNA-Seq of hepatocytes after APAP overdose (signature scores, DEG vs untreated)
Type: in vivo, mouse
Conditions: APAP vs. UT

Structure (SMILES): CC(=O)Nc1ccc(O)cc1 [APAP, acetaminophen]
- Hmgcs2 avg_logFC: 0.3105
- Hmgcs2 pct.1: 0.974
- Hmox1 avg_logFC: 0.3298
- Hmox1 pct.1: 0.108
- Hnf4a avg_logFC: 0.4538
- Hnf4a pct.1: 0.876
- Hp avg_logFC: 0.2604
- Hp pct.1: 0.998
- Hrg avg_logFC: 0.321
- Hrg pct.1: 0.88
- Hsd3b5 avg_logFC: −0.4712
- Hsd3b5 pct.1: 0.367
- Hsd17b13 avg_logFC: 0.4437
- Hsd17b13 pct.1: 0.798
- Hspa5 avg_logFC: 0.4048
- Hspa5 pct.1: 0.971
- Hyou1 avg_logFC: 0.3658
- Hyou1 pct.1: 0.561
- Igfbp4 avg_logFC: 0.3148
- Igfbp4 pct.1: 0.919
- Iigp1 avg_logFC: 0.3448
- Iigp1 pct.1: 0.851
- Il1r1 avg_logFC: 0.3633
- Il1r1 pct.1: 0.39
- Insig1 avg_logFC: 0.2541
- Insig1 pct.1: 0.597
- Itih2 avg_logFC: 0.2682
- Itih2 pct.1: 0.942
- Kif1b avg_logFC: 0.264
- Kif1b pct.1: 0.629
- Krt18 avg_logFC: 0.3307
- Krt18 pct.1: 0.72
- Lars2 avg_logFC: 1.069
- Lars2 pct.1: 0.997
- Lifr avg_logFC: −0.3532
- Lifr pct.1: 0.608
- Lipa avg_logFC: 0.2577
- Lipa pct.1: 0.73
- Lpgat1 avg_logFC: 0.3539
- Lpgat1 pct.1: 0.693
- Lpin2 avg_logFC: 0.3984
- Lpin2 pct.1: 0.79
- Lrg1 avg_logFC: 0.3478
- Lrg1 pct.1: 0.861
- Lrrc58 avg_logFC: 0.2998
- Lrrc58 pct.1: 0.542
- Man2a1 avg_logFC: 0.3404
- Man2a1 pct.1: 0.742
- Mat1a avg_logFC: 0.75
- Mat1a pct.1: 0.983
- Mbnl1 avg_logFC: 0.251
- Mbnl1 pct.1: 0.511
- Mfsd2a avg_logFC: 0.4484
- Mfsd2a pct.1: 0.413
- Mia3 avg_logFC: 0.2557
- Mia3 pct.1: 0.749
- Mt1 avg_logFC: 0.8909
- Mt1 pct.1: 0.701
- Mt2 avg_logFC: 0.6697
- Mt2 pct.1: 0.518
- Mup3 avg_logFC: −0.5425
- Mup3 pct.1: 0.999
- Mup4 avg_logFC: −1.001
- Mup4 pct.1: 0.716
- Mup5 avg_logFC: −1.342
- Mup5 pct.1: 0.541
- Mup6 avg_logFC: −1.882
- Mup6 pct.1: 0.804
- Mup7 avg_logFC: −0.6015
- Mup7 pct.1: 0.937
- Mup8 avg_logFC: −0.7268
- Mup8 pct.1: 0.13
- Mup9 avg_logFC: −1.914
- Mup9 pct.1: 0.594
- Mup11 avg_logFC: −1.728
- Mup11 pct.1: 0.84
- Mup12 avg_logFC: −0.3713
- Mup12 pct.1: 0.665
- Mup15 avg_logFC: −1.26
- Mup15 pct.1: 0.166
- Mup16 avg_logFC: −1.125
- Mup16 pct.1: 0.594
- Mup17 avg_logFC: −2.017
- Mup17 pct.1: 0.947
- Mup18 avg_logFC: −1.639
- Mup18 pct.1: 0.838
- Mup19 avg_logFC: −1.786
- Mup19 pct.1: 0.916
- Mup21 avg_logFC: −0.8723
- Mup21 pct.1: 0.702
- Myh9 avg_logFC: 0.4507
- Myh9 pct.1: 0.531
- Ndrg2 avg_logFC: 0.2845
- Ndrg2 pct.1: 0.956
- Ndufa4 avg_logFC: −0.2617
- Ndufa4 pct.1: 0.851
- Ndufs6 avg_logFC: −0.2721
- Ndufs6 pct.1: 0.678
- Nudt7 avg_logFC: −0.6192
- Nudt7 pct.1: 0.691
- P4hb avg_logFC: 0.2586
- P4hb pct.1: 0.958
- Pabpc1 avg_logFC: 0.3735
- Pabpc1 pct.1: 0.75
- Picalm avg_logFC: 0.2666
- Picalm pct.1: 0.558
- Pigr avg_logFC: 0.2747
- Pigr pct.1: 0.952
- Plin2 avg_logFC: 0.3714
- Plin2 pct.1: 0.799
- Prdx1 avg_logFC: −0.3499
- Prdx1 pct.1: 0.878
- Prdx4 avg_logFC: −0.2905
- Prdx4 pct.1: 0.55
- Pten avg_logFC: 0.265
- Pten pct.1: 0.645
- Ranbp2 avg_logFC: 0.2567
- Ranbp2 pct.1: 0.555
- Reep6 avg_logFC: 0.2892
- Reep6 pct.1: 0.837
- Retsat avg_logFC: 0.4126
- Retsat pct.1: 0.87
- Rora avg_logFC: 0.2853
- Rora pct.1: 0.547
- Rpl36al avg_logFC: −0.2702
- Rpl36al pct.1: 0.495
- Rps15 avg_logFC: −0.2722
- Rps15 pct.1: 0.49
- S100a9 avg_logFC: 0.3176
- S100a9 pct.1: 0.058
- Sdhc avg_logFC: 0.2605
- Sdhc pct.1: 0.738
- Sec61a1 avg_logFC: 0.2648
- Sec61a1 pct.1: 0.642
- Selenbp2 avg_logFC: −0.8304
- Selenbp2 pct.1: 0.751
- Sephs2 avg_logFC: 0.4286
- Sephs2 pct.1: 0.865
- Sepp1 avg_logFC: 0.3455
- Sepp1 pct.1: 1
- Serpina1a avg_logFC: −0.3347
- Serpina1a pct.1: 0.96
- Serpina1e avg_logFC: −0.4681
- Serpina1e pct.1: 0.99
- Serpina3m avg_logFC: 0.4597
- Serpina3m pct.1: 0.836
- Serpina3n avg_logFC: 0.4496
- Serpina3n pct.1: 0.76
- Serpina12 avg_logFC: −0.279
- Serpina12 pct.1: 0.362
- Sfxn1 avg_logFC: 0.2624
- Sfxn1 pct.1: 0.636
- Sh3glb1 avg_logFC: 0.2521
- Sh3glb1 pct.1: 0.47
- Slc4a4 avg_logFC: 0.2827
- Slc4a4 pct.1: 0.558
- Slc25a47 avg_logFC: 0.3096
- Slc25a47 pct.1: 0.927
- Slc39a14 avg_logFC: 0.356
- Slc39a14 pct.1: 0.552
- Slc40a1 avg_logFC: 0.2768
- Slc40a1 pct.1: 0.517
- Slco1a4 avg_logFC: 0.3826
- Slco1a4 pct.1: 0.484
- Snord118 avg_logFC: 0.4707
- Snord118 pct.1: 0.531
- Srxn1 avg_logFC: 0.564
- Srxn1 pct.1: 0.369
- Ssr3 avg_logFC: 0.2529
- Ssr3 pct.1: 0.732
- St3gal5 avg_logFC: 0.3876
- St3gal5 pct.1: 0.695
- Sult1a1 avg_logFC: 0.3652
- Sult1a1 pct.1: 0.799
- Tgoln1 avg_logFC: 0.2677
- Tgoln1 pct.1: 0.713
- Tm4sf4 avg_logFC: 0.276
- Tm4sf4 pct.1: 0.493
- Tmed5 avg_logFC: 0.3027
- Tmed5 pct.1: 0.689
- Tmem205 avg_logFC: −0.2953
- Tmem205 pct.1: 0.877
- Tnfrsf12a avg_logFC: 0.2588
- Tnfrsf12a pct.1: 0.193
- Trp53inp1 avg_logFC: 0.3977
- Trp53inp1 pct.1: 0.526
- Ttpa avg_logFC: 0.3932
- Ttpa pct.1: 0.916
- Txnrd1 pct.1: 0.64
- Uroc1 avg_logFC: 0.3135
- Uroc1 pct.1: 0.74
- Usp9x avg_logFC: 0.2541
- Usp9x pct.1: 0.503
- Wbp1l avg_logFC: 0.3662
- Wbp1l pct.1: 0.768
- Zfp91 avg_logFC: 0.2619
- Zfp91 pct.1: 0.666
- mmu-mir-6240 avg_logFC: 0.3395
- mmu-mir-6240 pct.1: 0.22
- mt-Co1 avg_logFC: −0.9219
- mt-Co1 pct.1: 0.977
- mt-Co2 avg_logFC: −1.078
